In PMC12135943, “Beyond Barriers, Big Crystallization Hurdles: Atropisomerism in Beyond Rule of Five Compounds Explored by Computational and NMR Studies” (Molecular Pharmaceutics, 2025):
Values after ≈ are worked out from the molar mass of the structure shown. Like-named read-outs stand apart in the source and are kept apart here.

Key:
Type in all cases: physicochemical
[1] = Dynamical vapor sorption (DVS); conditions: crystalline solvent-free form; 0-90% RH
Method: Dynamical vapor sorption data were recorded on a DVS intrinsic system from surface measurement systems (SMS) under a N2 atmosphere. Water sorption/desorption isotherms were recorded from 0% to 90% RH followed by an additional run from 90% to 0% RH in equal steps of 10% RH.

[2] = Approximate solvent solubility (ASS); conditions: for solubility: organic solvents and solvent systems, 40 °C, organic solvent or mixture, thermodynamic from solid, stirring at 40 °C
Method: The approximate solubility of both compounds was determined in various organic solvents and solvent systems with a range of properties, including protic, aprotic, polar, and nonpolar solvents. Solubility tests were conducted under stirring at 40 °C, with concentrations ranging from 400 to 5 mg/mL. Solvents in which the solubility was below 5 mg/mL were classified as antisolvents. […]
Experimental procedures ACBI1:
Approximate solvent solubility (ASS):
Approximately 20.00 mg were weighed in HPLC vials, and a magnetic stirrer bar was inserted. Water bath temperature was set at 40 °C, and the initial 25 μL of the appropriate solvent was added into the vial. Stirring was initiated and the slurries were brought up to the desired set temperature. Observations were recorded and the next addition was performed according to the Table S1. The samples were stirred at 40 °C overnight, cooled down to ambient conditions and observations were recorded after 24 h.

[3] = Variable temperature NMR rotational barrier calculation (modified Eyring equation); conditions: for rotational energy barrier size: conclusion of NMR experiments
Method: This equation allows quick evaluation of the rotational energy barrier as follows: ΔG^‡=RTcoal[22.96+ln(Tcoal/δν)] where R is the universal gas constant [J/mol·K], T coal is the coalescence temperature [K], and δν is the difference of the Larmor frequencies in [Hz] for the two observed signals for the rotameric pair. The energy calculated using this equation is given in J/mol, which is then converted into kcal/mol.
^1H NMR spectra were recorded in a suitable deuterated solvent using a Bruker Avance IIIHD NMR spectrometer with a working base frequency of 400 MHz, equipped with a helium cryogenically cooled ^1H/^13C /^15N TCI probehead. The temperature limits of the probehead are from −40 °C up to 150 °C. The ^1H NMR experiments are recorded at a proton resonance frequency of 400.13 MHz, and 100.61 MHz was used for the ^13C frequency. The temperature is regulated using a Bruker Smart Variable temperature unit and calibrated using NMR-thermometer sample calibration. The assignment of the proton and carbon signals is performed using ^1H and ^13C NMR experiments, such as 1D ^1H, 1D ^13C, and 2D experiments: ^1H–^1H COSY, ^1H–^1H ROESY, ^1H–^13C HSQC, and ^1H–^13C HMBC. The chemical shifts (δH and δC) are reported in parts per million referenced to the 0.01% of nondeuterated signal of the deuterated solvent in the proton-based experiments and to the signal of the fully deuterated solvent signal in the carbon dimensions.
The evaluation of the energy barrier for the single bond rotation by experiment serves as key information for the crystallization properties of the bRo5-like molecules. Single one-dimensional proton measurements at various temperatures in 10 K steps allow the assessment of the coalescence temperature and the calculation of the rotational barrier energy, as described below. Both model compounds, ACBI1 and BI201335, show a clearly observable doubled signal set for some of the signals in the NMR spectra at 303 K. This could be attributed to presence of rotamers and/or diastereoisomers, as shown in Figure and Figure for ACBI1 and Figure and Figure for BI201335. The discernment of whether the multiple of signal sets is observed due to a slow convergence between two or more forms or the presence of diastereoisomers is most easily accessed by performing a two-dimensional proton ROESY experiment. […] At this temperature, the exchange between the proton signals could be clearly observed by the presence of cross peaks with the same phase as the diagonal peaks. The Nuclear Overhauser Enhancement (NOE) proximity cross peaks for small molecules have an antidiagonal phase. This serves as proof for the presence of rotamers with rotational barrier that could not be overcome at 303 K and therefore no exchange cross peaks are measured. […] In contrast to the ACBI1, in the ROESY spectrum at 303 K for BI201335 the exchange cross peaks are measurable.
The variable temperature NMR experiments were performed in the temperature range from 303 to 393 K with a 10 K step in between the experiments. In the case of BI201335 there are two rotameric signal pairs for which an attempt to calculate the rotational barrier could be performed. […] An estimation of the potential rotational barrier nevertheless allows an approximation within a range of energy barriers to be calculated: if the coalescence temperature was 393 K, the rotational barrier for this signal pair would be 18.8 kcal/mol. […] At the last measured point of 393 K (clearly below the experimental coalescence temperature), the rotational barrier would be 19.4 kcal/mol. At 423 K the calculated energy barrier would be 20.9 kcal/mol, and at 453 K it would be 22.4 kcal/mol. Based on the lack of exchange signals in the ROESY spectra at lower temperatures and the shape of the signals at 393 K, a coalescence temperature around 450 K seems most plausible. Thus, the rotational barrier for ACBI1 is estimated as 22.4 kcal/mol, with an error range of about 1–1.5 kcal/mol.

[4] = solvents in which the compound was soluble, read-out: approximate solubility in organic solvents

Row | hygroscopicity (DVS isotherm plot) [1] | solubility [2, 4] [mg/mL] | rotational energy barrier size [3] | coalescence temperature ([3]; signal pair 4.46 and 4.76 ppm at 303 K) [K] | rotational barrier ([3]; signal pair 4.46 and 4.76 ppm, coalescence temperature 393 K) [kcal/mol] | rotational energy barrier ([3]; signal pair 4.62 and 4.95 ppm, estimated coalescence temperature 403 K) [kcal/mol] | rotational barrier ([3]; signal pair 4.62 and 4.95 ppm, if the coalescence temperature was 393 K (not reached)) [kcal/mol] | coalescence temperature (estimated) ([3]; signal pair 4.62 and 4.95 ppm, not converged at 393 K) | hydrophobicity ([2]; from solvent solubility test (Table S1)) | solubility ([2]; a few solvents classified as potential antisolvents, read-out: approximate solubility in antisolvents) [mg/mL] | rotational barrier ([3]; calculated for 393 K, clearly below the coalescence temperature) [kcal/mol] | calculated energy barrier ([3]; calculated for 423 K) [kcal/mol] | calculated energy barrier ([3]; calculated for 453 K) [kcal/mol] | rotational barrier (estimated) ([3]; error range of about 1–1.5 kcal/mol) [kcal/mol] | coalescence temperature (most plausible) ([3]; not reached at 393 K, estimated from signal shape and ROESY) | Compound
1 | slight hygroscopicity | 75 to 400 (≈ 86.2 to 460 mM) | below 20 kcal/mol | 393 | 18.9 | 19.3 | 18.8 | around 403 K | – | – | – | – | – | – | – | C=C[C@@H]1C[C@]1(NC(=O)[C@@H]1C[C@@H](Oc2cc(-c3csc(NC(=O)C(C)C)n3)nc3c(Br)c(OC)ccc23)CN1C(=O)[C@@H](NC(=O)OC1CCCC1)C(C)(C)C)C(=O)O [BI201335]
2 | – | 50 to 400 (≈ 53.4 to 427 mM) | above 20 kcal/mol | – | – | – | – | – | hydrophobic | < 5 | 19.4 | 20.9 | 22.4 | 22.4 | around 450 K | Cc1ncsc1-c1ccc(CNC(=O)C2CC(O)CN2C(=O)C(NC(=O)C2(F)CC2)C(C)(C)C)c(OCCOc2ccc(CN3CCN(c4cc(-c5ccccc5O)nnc4N)CC3)cc2)c1 (centres unmarked) [ACBI1]
